Experiments:
BSA = molecular target: T1, BSA (Bos taurus, UniProt P02769); assay: progesterone ligand binding assay by capillary IEF with fluorescence anisotropy, reference protein; conditions: ~100 nM of each labeled protein, 100 nM fluorescein labeled progesterone, 1% ampholytes, focused at 300V; FIG. 9D
T1 construct: purchased Fisher Scientific (Fairlawn, N.J.)
Method: Chemicals. Acetic acid, ammonium acetate, hydroxypropyl cellulose (HPC, avg. MW 100,000), HPLC grade dimethylsulfoxide (DMSO), HPLC grade water, BSA, and phosphate buffered saline (PBS, pH 7.4) were obtained from Fisher Scientific (Fairlawn, N.J.). Ampholytes (Pharmolyte 3-10 for IEF) were obtained from Amersham Biosciences (Piscataway, N.J.).
Sample Preparation. TRITC-labeled proteins were prepared according to manufacturer's protocol. […] TRITC was dissolved in DMSO at 1 mg/mL. The TRITC solution was added to the protein sample, and incubated in the dark for 2 hours.
Focusing Capillaries. 75 μm i.d., 360 μm o.d. fused silica capillaries (Polymicro, Phoenix, Ariz.) were coated with hydroxypropyl cellulose (HPC) by filling the capillaries with a 5% HPC solution and then baking them at 200° C. for 45 minutes. This treatment effectively eliminated the electroosmotic flow in the capillary.
cIEF. […]
Fluorescence anisotropy. Fluorescence emission was viewed using a Leica inverted microscope with a 10× long range objective in an epifluorescence configuration. […]
Since the microscope was operated in epifluorescence mode, it was not possible to measure a true anisotropy value. […] Since both the parallel and perpendicular emission intensities were not measured, the anisotropy value could be calculated, but this configuration did permit the detection of areas with increased anisotropies.

[1] = system: lysate from MCF-7 breast cancer cells; assay: DIABLA progesterone-protein interactions in a cell lysate; format: binding; conditions: MCF-7 breast cancer cell lysate, protocols as in Example 6
Method: The detection sensitivity of DIABLA was tested by examining progesterone-protein interactions in a lysate from MCF-7 breast cancer cells. The experimental protocols were essentially as described above in Example 6, except that a cell lysate was used rather than pure proteins. Five different protein targets that interact with progesterone were identified. FIG. 11 presents one of the targets.

T1 sequence (P02769 25-607): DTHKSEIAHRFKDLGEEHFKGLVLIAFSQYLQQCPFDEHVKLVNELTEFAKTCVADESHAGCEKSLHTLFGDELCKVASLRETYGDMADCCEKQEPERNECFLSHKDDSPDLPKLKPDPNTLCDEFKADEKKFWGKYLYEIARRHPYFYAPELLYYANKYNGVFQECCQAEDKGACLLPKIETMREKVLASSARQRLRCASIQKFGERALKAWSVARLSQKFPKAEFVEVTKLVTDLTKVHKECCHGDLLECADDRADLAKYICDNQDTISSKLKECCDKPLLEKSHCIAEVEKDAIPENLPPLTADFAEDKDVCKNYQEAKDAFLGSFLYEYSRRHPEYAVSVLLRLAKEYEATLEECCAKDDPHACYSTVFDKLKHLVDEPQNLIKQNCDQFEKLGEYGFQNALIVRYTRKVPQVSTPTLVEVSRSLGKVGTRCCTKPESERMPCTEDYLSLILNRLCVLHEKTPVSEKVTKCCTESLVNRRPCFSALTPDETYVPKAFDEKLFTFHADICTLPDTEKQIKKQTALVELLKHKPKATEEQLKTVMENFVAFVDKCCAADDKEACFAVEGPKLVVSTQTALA

CC(=O)[C@H]1CC[C@H]2[C@@H]3CCC4=CC(=O)CC[C@]4(C)[C@H]3CC[C@]12C [progesterone]
anisotropy in the region containing the focused BSA band (BSA): no or low anisotropy | number of protein targets that interact with progesterone identified [1]: Five
